In the kinase profiling compilation of Christmann-Franck et al. (2016):

Key:
Experiment in all cases: KINOMEscan competition binding
Conditions in all cases: compound 10.0 µM
CDKL2 (human) = CDKL2 (human) (UniProt Q92772)
PRKCH (human) = PRKCH (human) (UniProt P24723)
MAP3K10 (human) = MAP3K10 (human) (UniProt Q02779)
STK10 (human) = STK10 (human) (UniProt O94804)
NLK (human) = NLK (human) (UniProt Q9UBE8)
MAP3K11 (human) = MAP3K11 (human) (UniProt Q16584)
FER (human) = FER (human) (UniProt P16591)
PRKAA1 (human) = PRKAA1 (human) (UniProt Q13131)
[1] = molecular target: JAK2 JH1 catalytic (human) (UniProt O60674)
[2] = system: FGFR3 (human), P22607 [G697C]
LATS2 (human) = LATS2 (human) (UniProt Q9NRM7)
PAK7 (human) = PAK7 (human) (UniProt Q9P286)
EPHA4 (human) = EPHA4 (human) (UniProt P54764)
CAMK2D (human) = CAMK2D (human) (UniProt Q13557)
TIE1 (human) = TIE1 (human) (UniProt P35590)
[3] = system: ABL1 (human), P00519 [F317I]
SGK110 (human) = SGK110 (human) (UniProt P0C264)
CAMK1D (human) = CAMK1D (human) (UniProt Q8IU85)
CHEK2 (human) = CHEK2 (human) (UniProt O96017)
LIMK2 (human) = LIMK2 (human) (UniProt P53671)
[4] = system: EGFR (human), P00533 [L861Q]
CDC42BPB (human) = CDC42BPB (human) (UniProt Q9Y5S2)
WEE2 (human) = WEE2 (human) (UniProt P0C1S8)
EPHA2 (human) = EPHA2 (human) (UniProt P29317)
IRAK3 (human) = IRAK3 (human) (UniProt Q9Y616)
PTK2B (human) = PTK2B (human) (UniProt Q14289)
MAPKAPK5 (human) = MAPKAPK5 (human) (UniProt Q8IW41)
STK38L (human) = STK38L (human) (UniProt Q9Y2H1)
MYO3A (human) = MYO3A (human) (UniProt Q8NEV4)
BTK (human) = BTK (human) (UniProt Q06187)
PAK6 (human) = PAK6 (human) (UniProt Q9NQU5)
[5] = system: PIK3CA (human), P42336 [E545K]
TSSK1B (human) = TSSK1B (human) (UniProt Q9BXA7)
NEK6 (human) = NEK6 (human) (UniProt Q9HC98)
SRC (human) = SRC (human) (UniProt P12931)
EPHB2 (human) = EPHB2 (human) (UniProt P29323)
AKT2 (human) = AKT2 (human) (UniProt P31751)
PIK3CD (human) = PIK3CD (human) (UniProt O00329)
WEE1 (human) = WEE1 (human) (UniProt P30291)
[6] = system: ABL1 (human), P00519 [F317L]
CDK5 (human) = CDK5 (human) (UniProt Q00535)
MAP4K1 (human) = MAP4K1 (human) (UniProt Q92918)

NLK (human), sequence (Q9UBE8 whole entry, looked up): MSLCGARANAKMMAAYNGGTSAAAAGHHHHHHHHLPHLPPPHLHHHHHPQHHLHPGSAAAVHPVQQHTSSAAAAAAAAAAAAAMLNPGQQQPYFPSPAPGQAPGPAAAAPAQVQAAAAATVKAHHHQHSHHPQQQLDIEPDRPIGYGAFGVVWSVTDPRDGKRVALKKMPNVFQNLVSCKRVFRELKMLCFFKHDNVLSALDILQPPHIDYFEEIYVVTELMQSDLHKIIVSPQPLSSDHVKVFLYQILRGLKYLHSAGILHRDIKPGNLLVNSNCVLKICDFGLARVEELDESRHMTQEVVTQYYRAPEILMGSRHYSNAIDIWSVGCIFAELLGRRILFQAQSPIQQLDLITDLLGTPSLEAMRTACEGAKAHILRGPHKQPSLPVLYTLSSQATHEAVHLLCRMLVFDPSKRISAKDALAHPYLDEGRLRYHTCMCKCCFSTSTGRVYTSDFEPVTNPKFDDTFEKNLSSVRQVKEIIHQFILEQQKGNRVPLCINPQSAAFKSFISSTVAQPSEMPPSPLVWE
PIK3CA (human), P42336 [E545K], sequence (P42336 whole entry E545K, looked up): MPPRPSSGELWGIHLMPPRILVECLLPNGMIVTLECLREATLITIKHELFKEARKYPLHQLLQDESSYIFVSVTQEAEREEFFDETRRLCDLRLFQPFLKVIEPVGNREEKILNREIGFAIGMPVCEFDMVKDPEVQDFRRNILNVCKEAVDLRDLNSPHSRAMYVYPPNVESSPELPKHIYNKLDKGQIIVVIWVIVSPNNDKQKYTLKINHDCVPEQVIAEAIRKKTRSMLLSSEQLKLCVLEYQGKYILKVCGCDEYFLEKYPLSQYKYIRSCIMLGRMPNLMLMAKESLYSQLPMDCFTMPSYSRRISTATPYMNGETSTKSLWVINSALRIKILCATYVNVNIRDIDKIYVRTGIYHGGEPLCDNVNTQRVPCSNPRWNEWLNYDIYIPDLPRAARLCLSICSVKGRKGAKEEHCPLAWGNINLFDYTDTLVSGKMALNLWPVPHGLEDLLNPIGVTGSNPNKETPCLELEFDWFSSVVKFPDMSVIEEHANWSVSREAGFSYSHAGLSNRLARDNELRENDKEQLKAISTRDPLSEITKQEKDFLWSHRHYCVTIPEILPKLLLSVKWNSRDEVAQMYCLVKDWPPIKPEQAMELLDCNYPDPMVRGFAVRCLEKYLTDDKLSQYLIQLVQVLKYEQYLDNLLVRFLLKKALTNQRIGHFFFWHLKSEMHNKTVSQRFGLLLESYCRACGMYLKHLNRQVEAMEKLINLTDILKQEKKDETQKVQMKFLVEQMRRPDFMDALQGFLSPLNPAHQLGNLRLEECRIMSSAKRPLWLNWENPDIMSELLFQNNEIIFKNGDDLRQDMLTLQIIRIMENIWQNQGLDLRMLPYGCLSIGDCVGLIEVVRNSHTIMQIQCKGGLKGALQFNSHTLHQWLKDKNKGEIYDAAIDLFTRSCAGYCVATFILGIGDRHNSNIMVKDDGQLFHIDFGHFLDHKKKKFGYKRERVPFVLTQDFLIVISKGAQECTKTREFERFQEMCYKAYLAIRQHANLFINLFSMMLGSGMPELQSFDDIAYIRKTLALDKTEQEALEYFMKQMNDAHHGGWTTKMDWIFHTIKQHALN
WEE1 (human), sequence (P30291 whole entry, looked up): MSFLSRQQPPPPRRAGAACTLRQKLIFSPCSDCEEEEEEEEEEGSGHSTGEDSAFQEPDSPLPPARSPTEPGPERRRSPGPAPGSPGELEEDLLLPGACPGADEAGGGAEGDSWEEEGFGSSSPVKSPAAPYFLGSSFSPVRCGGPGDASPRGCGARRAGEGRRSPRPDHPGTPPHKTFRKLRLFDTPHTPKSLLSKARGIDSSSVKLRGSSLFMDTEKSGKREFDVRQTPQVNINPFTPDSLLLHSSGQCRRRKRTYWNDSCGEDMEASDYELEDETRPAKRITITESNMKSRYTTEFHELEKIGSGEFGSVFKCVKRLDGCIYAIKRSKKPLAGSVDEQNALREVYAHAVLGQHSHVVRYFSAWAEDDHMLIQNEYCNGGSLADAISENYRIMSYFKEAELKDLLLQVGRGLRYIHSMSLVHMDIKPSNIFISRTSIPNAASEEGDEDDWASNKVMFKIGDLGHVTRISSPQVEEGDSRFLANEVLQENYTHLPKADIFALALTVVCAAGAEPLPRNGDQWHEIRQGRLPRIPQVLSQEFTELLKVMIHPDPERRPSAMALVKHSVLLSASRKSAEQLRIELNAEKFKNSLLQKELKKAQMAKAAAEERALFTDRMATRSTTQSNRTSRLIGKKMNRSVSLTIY
STK10 (human), sequence (O94804 whole entry, looked up): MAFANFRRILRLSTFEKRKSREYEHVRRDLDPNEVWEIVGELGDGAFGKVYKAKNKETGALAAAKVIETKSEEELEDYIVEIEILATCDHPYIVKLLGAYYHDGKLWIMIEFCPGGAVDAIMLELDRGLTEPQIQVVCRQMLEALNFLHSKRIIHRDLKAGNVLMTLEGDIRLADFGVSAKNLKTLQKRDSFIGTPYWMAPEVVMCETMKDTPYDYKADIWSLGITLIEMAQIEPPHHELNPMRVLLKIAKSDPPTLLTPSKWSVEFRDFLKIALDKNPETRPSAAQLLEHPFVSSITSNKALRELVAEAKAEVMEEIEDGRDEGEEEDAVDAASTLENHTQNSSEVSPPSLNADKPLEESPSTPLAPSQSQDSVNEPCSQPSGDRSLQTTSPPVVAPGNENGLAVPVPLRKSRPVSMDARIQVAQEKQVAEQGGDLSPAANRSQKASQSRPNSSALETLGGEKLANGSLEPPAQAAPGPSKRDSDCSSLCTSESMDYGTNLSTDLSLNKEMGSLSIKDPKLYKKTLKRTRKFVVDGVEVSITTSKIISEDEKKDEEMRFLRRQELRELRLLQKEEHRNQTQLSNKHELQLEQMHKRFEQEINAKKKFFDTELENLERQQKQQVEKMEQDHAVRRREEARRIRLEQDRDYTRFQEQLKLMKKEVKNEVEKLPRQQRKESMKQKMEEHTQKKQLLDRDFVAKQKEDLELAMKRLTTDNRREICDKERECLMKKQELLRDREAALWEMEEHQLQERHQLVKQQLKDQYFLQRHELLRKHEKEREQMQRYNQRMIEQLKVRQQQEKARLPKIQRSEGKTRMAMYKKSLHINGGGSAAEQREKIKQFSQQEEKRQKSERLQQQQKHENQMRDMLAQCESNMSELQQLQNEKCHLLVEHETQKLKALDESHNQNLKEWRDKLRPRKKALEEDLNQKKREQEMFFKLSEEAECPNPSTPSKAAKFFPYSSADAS
PTK2B (human), sequence (Q14289 whole entry, looked up): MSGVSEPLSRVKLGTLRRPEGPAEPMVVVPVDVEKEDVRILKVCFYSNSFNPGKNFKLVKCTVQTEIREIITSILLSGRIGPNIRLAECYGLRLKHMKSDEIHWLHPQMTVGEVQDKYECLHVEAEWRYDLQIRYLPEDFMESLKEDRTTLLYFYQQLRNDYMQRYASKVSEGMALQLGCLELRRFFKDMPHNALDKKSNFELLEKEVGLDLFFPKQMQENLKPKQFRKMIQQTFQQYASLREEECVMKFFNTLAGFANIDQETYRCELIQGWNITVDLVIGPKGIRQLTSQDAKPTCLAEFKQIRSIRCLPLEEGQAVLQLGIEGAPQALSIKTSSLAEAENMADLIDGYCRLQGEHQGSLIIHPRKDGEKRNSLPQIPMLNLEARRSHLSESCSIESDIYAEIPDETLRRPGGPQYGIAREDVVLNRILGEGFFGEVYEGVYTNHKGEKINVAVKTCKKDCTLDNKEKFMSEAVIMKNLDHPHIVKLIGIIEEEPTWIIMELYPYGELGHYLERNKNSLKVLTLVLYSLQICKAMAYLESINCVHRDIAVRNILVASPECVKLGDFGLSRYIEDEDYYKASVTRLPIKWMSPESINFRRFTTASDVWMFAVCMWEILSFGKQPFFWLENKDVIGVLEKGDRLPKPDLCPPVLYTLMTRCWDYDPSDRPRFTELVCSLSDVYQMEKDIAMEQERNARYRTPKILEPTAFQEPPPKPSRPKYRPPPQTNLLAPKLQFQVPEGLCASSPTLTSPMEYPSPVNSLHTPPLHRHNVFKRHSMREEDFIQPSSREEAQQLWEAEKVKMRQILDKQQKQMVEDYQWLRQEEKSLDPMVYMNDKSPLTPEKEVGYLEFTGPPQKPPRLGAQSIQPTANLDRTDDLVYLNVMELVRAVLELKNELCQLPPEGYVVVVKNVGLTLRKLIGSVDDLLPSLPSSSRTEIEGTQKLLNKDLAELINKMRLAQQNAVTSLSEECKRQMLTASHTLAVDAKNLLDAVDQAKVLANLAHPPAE
PRKAA1 (human), sequence (Q13131 whole entry, looked up): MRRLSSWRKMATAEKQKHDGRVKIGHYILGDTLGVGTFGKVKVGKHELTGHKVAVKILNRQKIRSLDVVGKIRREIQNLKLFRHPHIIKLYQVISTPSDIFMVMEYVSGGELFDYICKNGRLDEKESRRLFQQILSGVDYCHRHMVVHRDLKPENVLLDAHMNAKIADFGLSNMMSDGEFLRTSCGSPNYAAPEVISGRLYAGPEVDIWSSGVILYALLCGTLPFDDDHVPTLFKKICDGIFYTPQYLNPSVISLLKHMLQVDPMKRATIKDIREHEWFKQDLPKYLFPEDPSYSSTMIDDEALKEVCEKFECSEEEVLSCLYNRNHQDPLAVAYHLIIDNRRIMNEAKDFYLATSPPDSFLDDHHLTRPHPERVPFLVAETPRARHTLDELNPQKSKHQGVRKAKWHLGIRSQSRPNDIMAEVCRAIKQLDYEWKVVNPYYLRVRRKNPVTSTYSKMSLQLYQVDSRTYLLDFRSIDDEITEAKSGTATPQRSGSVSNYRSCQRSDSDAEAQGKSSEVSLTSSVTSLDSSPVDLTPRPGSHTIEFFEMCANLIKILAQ
CDK5 (human), sequence (Q00535 whole entry, looked up): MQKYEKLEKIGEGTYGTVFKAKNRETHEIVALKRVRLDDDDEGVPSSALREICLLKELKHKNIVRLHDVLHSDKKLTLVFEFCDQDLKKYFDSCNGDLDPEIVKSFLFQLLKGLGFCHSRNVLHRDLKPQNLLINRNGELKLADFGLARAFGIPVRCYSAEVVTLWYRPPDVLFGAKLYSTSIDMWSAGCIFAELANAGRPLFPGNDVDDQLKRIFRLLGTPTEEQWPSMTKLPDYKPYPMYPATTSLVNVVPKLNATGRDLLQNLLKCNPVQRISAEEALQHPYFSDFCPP

COc1cc(N2CCC(O)CC2)ccc1Nc1ncc2c(n1)N1CCc3cccc(c31)C(=O)N2C
kinase still bound, per cent of control (CDKL2 (human)): 100%
kinase still bound, per cent of control (PRKCH (human)): 100%
kinase still bound, per cent of control (MAP3K10 (human)): 100%
kinase still bound, per cent of control (STK10 (human)): 100%
kinase still bound, per cent of control (NLK (human)): 73%
kinase still bound, per cent of control (MAP3K11 (human)): 100%
kinase still bound, per cent of control (FER (human)): 74%
kinase still bound, per cent of control (PRKAA1 (human)): 84%
kinase still bound, per cent of control [1]: 69%
kinase still bound, per cent of control [2]: 97%
kinase still bound, per cent of control (LATS2 (human)): 100%
kinase still bound, per cent of control (PAK7 (human)): 64%
kinase still bound, per cent of control (EPHA4 (human)): 98%
kinase still bound, per cent of control (CAMK2D (human)): 65%
kinase still bound, per cent of control (TIE1 (human)): 94%
kinase still bound, per cent of control [3]: 88%
kinase still bound, per cent of control (SGK110 (human)): 100%
kinase still bound, per cent of control (CAMK1D (human)): 87%
kinase still bound, per cent of control (CHEK2 (human)): 42%
kinase still bound, per cent of control (LIMK2 (human)): 100%
kinase still bound, per cent of control [4]: 64%
kinase still bound, per cent of control (CDC42BPB (human)): 94%
kinase still bound, per cent of control (WEE2 (human)): 87%
kinase still bound, per cent of control (EPHA2 (human)): 95%
kinase still bound, per cent of control (IRAK3 (human)): 84%
kinase still bound, per cent of control (PTK2B (human)): 57%
kinase still bound, per cent of control (MAPKAPK5 (human)): 95%
kinase still bound, per cent of control (STK38L (human)): 94%
kinase still bound, per cent of control (MYO3A (human)): 54%
kinase still bound, per cent of control (BTK (human)): 78%
kinase still bound, per cent of control (PAK6 (human)): 92%
kinase still bound, per cent of control [5]: 88%
kinase still bound, per cent of control (TSSK1B (human)): 74%
kinase still bound, per cent of control (NEK6 (human)): 30%
kinase still bound, per cent of control (SRC (human)): 100%
kinase still bound, per cent of control (EPHB2 (human)): 94%
kinase still bound, per cent of control (AKT2 (human)): 100%
kinase still bound, per cent of control (PIK3CD (human)): 48%
kinase still bound, per cent of control (WEE1 (human)): 100%
kinase still bound, per cent of control [6]: 63%
kinase still bound, per cent of control (CDK5 (human)): 86%
kinase still bound, per cent of control (MAP4K1 (human)): 96%

COc1cc(N2CCN(C)CC2)ccc1Nc1ncc2c(n1)N(C)c1ccccc1N(C)C2=O
kinase still bound, per cent of control (CDKL2 (human)): 81%
kinase still bound, per cent of control (PRKCH (human)): 76%
kinase still bound, per cent of control (MAP3K10 (human)): 100%
kinase still bound, per cent of control (STK10 (human)): 100%
kinase still bound, per cent of control (NLK (human)): 100%
kinase still bound, per cent of control (MAP3K11 (human)): 100%
kinase still bound, per cent of control (FER (human)): 80%
kinase still bound, per cent of control (PRKAA1 (human)): 92%
kinase still bound, per cent of control [1]: 100%
kinase still bound, per cent of control [2]: 100%
kinase still bound, per cent of control (LATS2 (human)): 75%
kinase still bound, per cent of control (PAK7 (human)): 79%
kinase still bound, per cent of control (EPHA4 (human)): 95%
kinase still bound, per cent of control (CAMK2D (human)): 99%
kinase still bound, per cent of control (TIE1 (human)): 70%
kinase still bound, per cent of control [3]: 67%
kinase still bound, per cent of control (SGK110 (human)): 52%
kinase still bound, per cent of control (CAMK1D (human)): 99%
kinase still bound, per cent of control (CHEK2 (human)): 97%
kinase still bound, per cent of control (LIMK2 (human)): 86%
kinase still bound, per cent of control [4]: 85%
kinase still bound, per cent of control (CDC42BPB (human)): 100%
kinase still bound, per cent of control (WEE2 (human)): 100%
kinase still bound, per cent of control (EPHA2 (human)): 100%
kinase still bound, per cent of control (IRAK3 (human)): 82%
kinase still bound, per cent of control (PTK2B (human)): 100%
kinase still bound, per cent of control (MAPKAPK5 (human)): 100%
kinase still bound, per cent of control (STK38L (human)): 100%
kinase still bound, per cent of control (MYO3A (human)): 74%
kinase still bound, per cent of control (BTK (human)): 78%
kinase still bound, per cent of control (PAK6 (human)): 100%
kinase still bound, per cent of control [5]: 97%
kinase still bound, per cent of control (TSSK1B (human)): 53%
kinase still bound, per cent of control (NEK6 (human)): 100%
kinase still bound, per cent of control (SRC (human)): 88%
kinase still bound, per cent of control (EPHB2 (human)): 68%
kinase still bound, per cent of control (AKT2 (human)): 100%
kinase still bound, per cent of control (PIK3CD (human)): 100%
kinase still bound, per cent of control (WEE1 (human)): 92%
kinase still bound, per cent of control [6]: 45%
kinase still bound, per cent of control (CDK5 (human)): 100%
kinase still bound, per cent of control (MAP4K1 (human)): 100%
